US12528792B2, “Sulfonamide compounds and the use thereof in the treatment of cancer” (TROBIO THERAPEUTICS PTY LTD, priority 2019, dated 2026)

Legend:
Assay type in all cases: cell-based
[1] = system: SK-N-SH neuroblastoma cells; test: Cytotoxicity assay, MTS viability; conditions: Homo sapiens, 72 hours
Experimental: The ability of compounds of the disclosure to inhibit the proliferation of SK—N—SH neuroblastoma cells was assessed. The SK—N—SH cell line was maintained as a monolayer in Dulbeccos Modified Eagles medium (DMEM) supplemented with 10% foetal bovine serum (FBS) and grown at 37° C. in a humidified atmosphere with 5% CO2. For the cytotoxicity assay, SK—N—SH cells were seeded at a density of 2×10^3 cells per well in 96-well plates. The cells were treated with serial dilutions of the test compounds (1:2 starting concentration 100 µM) and viability measured after 72 hours using a standard MTS assay. Cell viability was normalised to control (vehicle alone) and dose response curves and EC50 values (Table 3) were determined using Graph Pad Prism 6.

A2780 (ovarian) cells = test: Anti-proliferative activity, Cell-Titre luminescent viability assay; conditions: Homo sapiens, 72 h exposure, Cell-Titre luminescent reagent
Summary of the method: (§1)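 Cells attached 24 h at 37° C., 5% CO2, then treated 72 h with compound at 0.3–100 μM or 0.1–30 μM. Viability read by Cell-Titre luminescence after 30 min reagent exposure, normalized to vehicle; EC50 from variable-slope sigmoidal nonlinear regression.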

A549 (NSCLC) cells = test: as above; conditions: Homo sapiens, 72 h exposure, Cell-Titre luminescent reagent
Summary of the method: as §1

Row | SMILES | IC50 (A2780 (ovarian) cells) | IC50 (A549 (NSCLC) cells) | IC50 [1]
1 | O=C(Nc1ccc(C(F)(F)F)cc1)N1CCN(S(=O)(=O)c2ccc3c(c2)CCN3)CC1 [Compound 14, 4-(indolin-5-ylsulfonyl)-N-(4-(trifluoromethyl)phenyl)piperazine-1-carboxamide] | 24.8 µM | 33.1 µM | 26.6 µM
2 | O=C(Nc1ccc(C(F)(F)F)cc1)C1CCN(S(=O)(=O)c2ccc3c(c2)CCN3)CC1 [Compound 5, 1-(indolin-5-ylsulfonyl)-N-(4-(trifluoromethyl)phenyl)piperidine-4-carboxamide] | 14.8 µM | 39.6 µM | 27.4 µM
3 | CCC(C)c1cccc(NC(=O)c2ccn(S(=O)(=O)c3ccc4[nH]ccc4c3)c2)c1 (stereo not drawn) [Compound 35, 1-((1H-indol-5-yl)sulfonyl)-N-(3-(sec-butyl)phenyl)-1H-pyrrole-3-carboxamide] | 2.2 µM | 3.6 µM | 6.81 µM
4 | CCC(C)c1ccc(NC(=O)C2CCN(S(C)(=O)=O)CC2)cc1 (stereo not drawn) [Compound 29, N-(4-(sec-butyl)phenyl)-1-(methylsulfonyl) piperidine-4-carboxamide] | > 100 µM | > 100 µM | > 100 µM
5 | CCC(C)c1ccc(NC(=O)c2ccn(S(=O)(=O)c3ccc4c(c3)CCN4)c2)cc1 (stereo not drawn) [Compound 21, N-(4-(sec-butyl)phenyl)-1-(indolin-5-ylsulfonyl)-1H-pyrrole-3-carboxamide] | 20 µM | 37.4 µM | 27.1 µM
6 | Cc1ccc(NC(=O)N2CCN(S(=O)(=O)c3ccc4[nH]ccc4c3)CC2)cc1O [Compound 16, 4-((1H-indol-5-yl)sulfonyl)-N-(3-hydroxy-4-methylphenyl)piperazine-1-carboxamide] | 28.8 µM | 17.3 µM | 31.5 µM
7 | O=C(Nc1ccc(C(F)(F)F)cc1)N1CCN(S(=O)(=O)c2ccc3[nH]ccc3c2)CC1 [Compound 17, 4-((1H-indol-5-yl)sulfonyl)-N-(4-(trifluoromethyl)phenyl)piperazine-1-carboxamide] | 13.9 µM | 6.5 µM | 22.9 µM
8 | CCC(C)c1ccccc1NC(=O)c1ccn(S(=O)(=O)c2ccc3[nH]ccc3c2)c1 (stereo not drawn) [Compound 36, 1-((1H-indol-5-yl)sulfonyl)-N-(2-(sec-butyl)phenyl)-1H-pyrrole-3-carboxamide] | 6.1 µM | 8.9 µM | 22.2 µM
9 | CCC(C)c1ccc(NC(=O)N2CCN(S(=O)(=O)c3ccc4[nH]ccc4c3)CC2)cc1 (stereo not drawn) [Compound 15, 4-((1H-indol-5-yl)sulfonyl)-N-(4-(sec-butyl)phenyl)piperazine-1-carboxamide] | 22.3 µM | 25.8 µM | 14.9 µM
10 | CCC(C)c1ccc(NC(=O)c2ccn(S(=O)(=O)c3cc(C(N)=O)n(C)c3)c2)cc1 (stereo not drawn) [Compound 18, 4-((3-((4-(sec-butyl)phenyl)carbamoyl)-1H-pyrrol-1-yl)sulfonyl)-1-methyl-1H-pyrrole-2-carboxamide] | 6.8 µM | 27.6 µM | 22.3 µM
11 | Cc1ccc(NC(=O)C2CCN(S(=O)(=O)c3ccc4[nH]ccc4c3)CC2)cc1O [Compound 7, 1-((1H-indol-5-yl)sulfonyl)-N-(3-hydroxy-4-methylphenyl)piperidine-4-carboxamide] | 41.4 µM | 44.4 µM | 32.6 µM
12 | Cc1ccc(NC(=O)c2ccn(S(=O)(=O)c3ccc4[nH]ccc4c3)c2)cc1O [Compound 25, 1-((1H-indol-5-yl)sulfonyl)-N-(3-hydroxy-4-methylphenyl)-1H-pyrrole-3-carboxamide] | > 100 µM | > 100 µM | 30 µM
13 | Cc1ccc(NC(=O)c2ccn(S(=O)(=O)c3ccc4c(c3)CCN4)c2)cc1O [Compound 22, N-(3-hydroxy-4-methylphenyl)-1-(indolin-5-ylsulfonyl)-1H-pyrrole-3-carboxamide] | > 100 µM | > 100 µM | 57.6 µM
14 | O=C(Nc1ccc(C(F)(F)F)cc1)c1ccn(S(=O)(=O)c2ccc3c(c2)CCN3)c1 [Compound 23, 1-(indolin-5-ylsulfonyl)-N-(4-(trifluoromethyl)phenyl)-1H-pyrrole-3-carboxamide] | 5.3 µM | 11.6 µM | 12.8 µM

Further lines, with some results ahead:

Row | IC50 (A2780 (ovarian) cells) | IC50 (A549 (NSCLC) cells) | SMILES | IC50 [1]
15 | 9.31 µM | 14.3 µM | O=C(Nc1ccc(Cl)c(Cl)c1)c1ccn(S(=O)(=O)c2ccc3[nH]ccc3c2)n1 [Compound 83, 1-((1H-indol-5-yl)sulfonyl)-N-(3,4-dichlorophenyl)-1H-pyrazole-3-carboxamide] | 13.1 µM
16 | 3.2 µM | 12.8 µM | CC(C)(C)c1ccc(S(=O)(=O)n2ccc(C(=O)Nc3ccc(C(F)(F)F)cc3)c2)cc1 [Compound 93, 1-((4-(tert-butyl)phenyl)sulfonyl)-N-(4-(trifluoromethyl)phenyl)-1H-pyrrole-3-carboxamide] | 18.2 µM
17 | 4 µM | 17.3 µM | CC(C)(C)c1ccc(S(=O)(=O)n2ccc(C(=O)Nc3ccc(F)cc3)c2)cc1 [Compound 92, 1-((4-(tert-butyl)phenyl)sulfonyl)-N-(4-fluorophenyl)-1H-pyrrole-3-carboxamide] | 16.6 µM
18 | 7.1 µM | 7.7 µM | O=C(Nc1cccc(C(F)(F)F)c1)c1ccn(S(=O)(=O)c2ccc3[nH]ccc3c2)c1 [Compound 46, 1-((1H-indol-5-yl)sulfonyl)-N-(3-(trifluoromethyl)phenyl)-1H-pyrrole-3-carboxamide] | 14.7 µM
19 | 8.11 µM | 6.58 µM | CC(C)c1ccc(NC(=O)c2ccn(S(=O)(=O)c3ccc4[nH]ccc4c3)n2)cc1 [Compound 107, 1-((1H-indol-5-yl)sulfonyl)-N-(4-isopropylphenyl)-1H-pyrazole-3-carboxamide] | 6.22 µM
20 | 22.3 µM | 16.2 µM | CCC(C)c1ccc(NC(=O)C2CCN(S(=O)(=O)c3ccc4cc[nH]c4n3)CC2)cc1 (stereo not drawn) [Compound 65, 1-((1H-pyrrolo[2,3-b]pyridin-6-yl)sulfonyl)-N-(4-(sec-butyl)phenyl) piperidine-4-carboxamide] | 12.5 µM
21 | 10.9 µM | 12.6 µM | O=C(Nc1cccc(C(F)(F)F)c1)C1CCN(S(=O)(=O)c2ccc3[nH]ccc3c2)CC1 [Compound 63, 1-((1H-indol-5-yl)sulfonyl)-N-(3-(trifluoromethyl)phenyl) piperidine-4-carboxamide] | 13.5 µM
22 | 8.71 µM | 4.09 µM | CC(C)c1ccc(NC(=O)c2ccn(S(=O)(=O)c3ccc4[nH]ccc4c3)n2)cc1F [Compound 108, 1-((1H-indol-5-yl)sulfonyl)-N-(3-fluoro-4-isopropylphenyl)-1H-pyrazole-3-carboxamide] | 9.71 µM
23 | 8.85 µM | 12.8 µM | CCCc1ccc(NC(=O)c2ccn(S(=O)(=O)c3ccc4[nH]ccc4c3)c2)cc1 [Compound 96, 1-((1H-indol-5-yl)sulfonyl)-N-(4-propylphenyl)-1H-pyrrole-3-carboxamide] | 12.2 µM
24 | 8.66 µM | 13.3 µM | O=C(Nc1ccc(Cl)c(F)c1)c1ccn(S(=O)(=O)c2ccc3[nH]ccc3c2)c1 [Compound 69, 1-((1H-indol-5-yl)sulfonyl)-N-(4-chloro-3-fluorophenyl)-1H-pyrrole-3-carboxamide] | 17.3 µM
25 | 2.1 µM | 3.8 µM | CCC(C)c1ccc(NC(=O)c2ccn(S(=O)(=O)c3ccc4[nH]cc(C)c4c3)c2)cc1 (stereo not drawn) [Compound 58, N-(4-(sec-butyl)phenyl)-1-((3-methyl-1H-indol-5-yl)sulfonyl)-1H-pyrrole-3-carboxamide] | 14 µM
26 | 4.6 µM | 6.2 µM | CCC(C)c1ccc(NC(=O)c2ccn(S(=O)(=O)c3ccc4[nH]c(C)c(C)c4c3)c2)cc1 (stereo not drawn) [Compound 59, N-(4-(sec-butyl)phenyl)-1-((2,3-dimethyl-1H-indol-5-yl)sulfonyl)-1H-pyrrole-3-carboxamide] | 10.3 µM
27 | 9.8 µM | 14 µM | CCC(C)c1ccc(NC(=O)C2CCN(S(=O)(=O)c3ccc4cc[nH]c4c3)CC2)cc1 (stereo not drawn) [Compound 64, 1-((1H-indol-6-yl)sulfonyl)-N-(4-(sec-butyl)phenyl) piperidine-4-carboxamide] | 4.05 µM
28 | 8.37 µM | 7.22 µM | CC(C)(C)c1ccc(NC(=O)c2ccn(S(=O)(=O)c3ccc4[nH]ccc4c3)n2)cc1 [Compound 113, 1-((1H-indol-5-yl)sulfonyl)-N-(4-(tert-butyl)phenyl)-1H-pyrazole-3-carboxamide] | 9.41 µM
29 | 2.8 µM | 6.7 µM | CC(C)(C)c1ccc(S(=O)(=O)n2ccc(C(=O)NCCc3ccc(F)cc3)c2)cc1 [Compound 89, 1-((4-(tert-butyl)phenyl)sulfonyl)-N-(4-fluorophenethyl)-1H-pyrrole-3-carboxamide] | 15.6 µM
30 | 2.2 µM | 5.2 µM | Cc1ccccc1NC(=O)c1ccn(S(=O)(=O)c2ccc3[nH]ccc3c2)c1 [Compound 45, 1-((1H-indol-5-yl)sulfonyl)-N-(o-tolyl)-1H-pyrrole-3-carboxamide] | 27 µM
31 | 1.8 µM | 4 µM | O=C(Nc1ccccc1F)c1ccn(S(=O)(=O)c2ccc3[nH]ccc3c2)c1 [Compound 50, 1-((1H-indol-5-yl)sulfonyl)-N-(2-fluorophenyl)-1H-pyrrole-3-carboxamide] | 11.5 µM
